Assay results: patent US20250283873A1, “NERVOUS SYSTEM CELL-CONTAINING SPHEROID, METHOD FOR PRODUCING NERVOUS SYSTEM CELL-CONTAINING SPHEROID, AND METHOD FOR EVALUATING TEST SUBSTANCE” (Ricoh Company, Ltd., priority 2024, published 2025)

Tests used:
[1] = system: 3D spheroid-cultured nerve cells (human iPSC-derived nerve cells and human-derived primary cultured astrocytes); experiment: Calcium assay in 3D spheroid-cultured nerve cells (number of calcium spikes); format: cell-based; details: for relative value (log 2) of a change in number of the calcium spikes (DMSO = 0) / relative value of the number of the calcium spikes (DMSO set to 100%): cultured 5 weeks; for relative value (log 2) of a change in number of the calcium spikes (DMSO = 0): Experimental Examples 4-9, FIG. 4-9
Excerpt: Human iPSC-derived nerve cells (Excitatory Neurons, Elixirgen Scientific, Inc.) and human-derived primary cultured astrocytes (ScienCell Research Laboratories, Inc.) were mixed so that the number of cells per well was 8,000 for the nerve cells and 8,000 for the astrocytes, and seeded on a plate for producing a spheroid. As the culture medium, Neurobasal Plus (Thermo Fisher Scientific, Inc.) to which B-27 Plus Supplement (Thermo Fisher Scientific, Inc.), Glutamax (Thermo Fisher Scientific, Inc.), 200 μM ascorbic acid (FUJIFILM Wako Pure Chemical Corporation), and a 10% Neuron Culture medium (FUJIFILM Wako Pure Chemical Corporation) had been added was used. Subsequently, the cells were cultured for 6 weeks and a calcium assay which will be described later was performed.
In the case of the 3D spheroid-cultured nerve cells, each spheroid was transferred to a plate for measurement, a calcium-sensitive fluorescent dye (Cal-520AM, (AAT Bioquest, Inc.)), Pluronic F-127 (AAT Bioquest, Inc.), and the drug were added to the culture medium, and the fluorescence was measured at intervals of 0.5 seconds for 20 minutes using a fluorescence plate reader to measure the calcium spikes.
By setting the proportion of the change in number of the calcium spikes in a case where dimethyl sulfoxide (DMSO) used as a solvent for the drug was added to 0%, in a case where the number of the calcium spikes increased due to the addition of the drug, the value is shown to be positive, and in a case where the number of the calcium spikes decreased due to the addition of the drug, the value is shown to be negative.
A calcium assay was performed in the presence of a drug, using spheroids with different numbers of cells, and the drug responsiveness of the nerve cells was examined. Human iPSC-derived nerve cells (Excitatory Neurons, Elixirgen Scientific, Inc.) and human-derived primary cultured astrocytes (ScienCell Research Laboratories, Inc.) were mixed so that the number of cells per well was 8,000 for the nerve cells and 8,000 for the astrocytes, 4,000 for the nerve cells and 4,000 for the astrocytes, or 2,000 for the nerve cells and 2,000 for the astrocytes, and seeded on a plate for producing a spheroid. As the culture medium, Neurobasal Plus (Thermo Fisher Scientific, Inc.) to which B-27 Plus Supplement (Thermo Fisher Scientific, Inc.), Glutamax (Thermo Fisher Scientific, Inc.), 200 μM ascorbic acid (FUJIFILM Wako Pure Chemical Corporation), and a 10% Neuron Culture medium (FUJIFILM Wako Pure Chemical Corporation) had been added was used. Subsequently, the cells were cultured for 5 weeks, and a calcium assay was performed in the same manner as in Experimental Example 1. Chlorpromazine was used as the drug.
The values in the graph indicate the mean value±the standard deviation. The horizontal axis of the graph indicates the concentration of chlorpromazine in the culture medium, and the vertical axis of the graph indicates a relative value of the number of the calcium spikes in a case where dimethyl sulfoxide (DMSO) used as a solvent for the drug was added, with the number of the calcium spikes set to 100%. […] 0% indicates a state in which the calcium spikes completely disappear.
A calcium assay was performed in the same manner as in Experimental Example 2, except that the drug was changed to GABA and the number of cells constituting the spheroid was changed to 16,000 or 4,000, and the drug responsiveness of the nerve cells was examined.

[2] = system: 2D-cultured nerve cells (human iPSC-derived nerve cells and human-derived primary cultured astrocytes); experiment: Calcium assay in 2D-cultured nerve cells (number of calcium spikes); format: cell-based; details: cultured 6 weeks, Experimental Example 1, FIG. 1
Experimental: Human iPSC-derived nerve cells (Excitatory Neurons, Elixirgen Scientific, Inc.) and human-derived primary cultured astrocytes (ScienCell Research Laboratories, Inc.) were seeded in a 384-well plate so that the number of cells per well was 10,000 for the nerve cells and 2,500 for the astrocytes. As the culture medium, Neurobasal Plus (Thermo Fisher Scientific, Inc.) to which B-27 Plus Supplement (Thermo Fisher Scientific, Inc.), Glutamax (Thermo Fisher Scientific, Inc.), 200 µM ascorbic acid (FUJIFILM Wako Pure Chemical Corporation), and a 10% Neuron Culture medium (FUJIFILM Wako Pure Chemical Corporation) had been added was used. Subsequently, the cells were cultured for 6 weeks and a calcium assay which will be described later was performed.
A calcium assay was performed in the presence of a drug to examine the drug responsiveness of the 2D-cultured nerve cells and the 3D spheroid-cultured nerve cells. Chlorpromazine was used as the drug.
In the case of the 2D-cultured nerve cells, a calcium-sensitive fluorescent dye (Cal-520AM, AAT Bioquest, Inc.) and a drug were added to the culture medium, and the fluorescence was measured at intervals of 0.5 seconds for 20 minutes using a fluorescence plate reader to measure the calcium spikes.
FIG. 1 is a graph showing the measurement results. The values in the graph indicate the mean value±the standard deviation. […]

[3] = spheroid of 4,000 cells, compared with 16,000 cells
[4] = spheroid of 4,000 cells, Experimental Examples 2-3, FIG. 2-3, chlorpromazine at 1 μM and 3 μM
[5] = spheroid of 8,000 cells, Experimental Examples 2-3, FIG. 2-3, chlorpromazine at 1 μM and 3 μM
[6] = spheroid of 16,000 cells, Experimental Examples 2-3, FIG. 2-3, chlorpromazine at 1 μM and 3 μM

SMILES	relative value (log 2) of a change in number of the calcium spikes (DMSO = 0) [1, 3]	relative value of the number of the calcium spikes (DMSO set to 100%) [1, 4]	relative value of the number of the calcium spikes (DMSO set to 100%) [1, 5]	relative value of the number of the calcium spikes (DMSO set to 100%) [1, 6]	also measured
NCCCC(=O)O [GABA, γ-aminobutyric acid]	the action was exhibited at a lower concentration and a stronger action was exhibited at 4,000 cells in a concentration-dependent manner	–	–	–	–
NCCc1ccc(O)c(O)c1 [dopamine]	the action was exhibited at a lower concentration and a stronger action was exhibited at 4,000 cells in a concentration-dependent manner	–	–	–	–
NC(=O)N1c2ccccc2C=Cc2ccccc21 [carbamazepine]	the action was exhibited at a lower concentration and a stronger action was exhibited at 4,000 cells in a concentration-dependent manner	–	–	–	–
CN(C)CCCN1c2ccccc2Sc2ccc(Cl)cc21 [chlorpromazine, Chlorpromazine]	the action was exhibited at a lower concentration and a stronger action was exhibited at 4,000 cells in a concentration-dependent manner	showed a concentration-dependent response	did not show a concentration-dependent response	did not show a concentration-dependent response	change in number of the calcium spikes (vs DMSO) ([1]; 3D spheroid, 8,000 nerve cells + 8,000 astrocytes, cultured 6 weeks, Experimental Example 1, FIG. 1): no change in number of the calcium spikes was observed at any drug concentration; number of the calcium spikes (proportion of change vs DMSO) ([2]; 2D culture, 10,000 nerve cells and 2,500 astrocytes per well): the number of the calcium spikes decreased in a drug concentration-dependent manner; concentration at which the calcium spikes disappeared ([2]; 2D culture): 3 µM
N#Cc1cc2c(cc1[N+](=O)[O-])=NC(=O)C(=O)N=2 [CNQX, 6-cyano-7-nitroquinoxaline-2,3-dione]	the action was exhibited at a lower concentration and a stronger action was exhibited at 4,000 cells in a concentration-dependent manner	–	–	–	–
CN1CCc2cc3c(cc2[C@H]1[C@@H]1OC(=O)c2c1ccc1c2OCO1)OCO3 [bicuculine]	drug responsiveness was exhibited in a concentration-dependent manner	an increase in the number of the calcium spikes was observed in a concentration-dependent manner	a significant response was not observed	an increase in the number of the calcium spikes was not observed at any concentration	relative value of the number of the calcium spikes (DMSO set to 100%) ([1]; spheroid of 8,000 cells, drug at 30 μM, Experimental Example 3, FIG. 3): a tendency of an increase in the number of the calcium spikes was observed; relative value (log 2) of a change in number of the calcium spikes (DMSO = 0) ([1]; spheroid of 16,000 cells): no drug response was observed
